Reference: PMC5590075, “Synthesis, Antimicrobial, and Antioxidant Activities of Chalcogen-Containing Nitrone Derivatives from (R)-citronellal” (Medicines, 2017)
In brackets after ≈: the same amount, converted by molar mass. Read-outs that look alike come from different tables or passages of the source.

Experiments:
[1] = Ferric ion reducing antioxidant power (FRAP); conditions: mean ± SD (n = 3)
Experimental: The antioxidant properties of the synthesized compounds (5a–d and 10) were evaluated by three different methods in vitro: DPPH (1,1-diphenyl-2-picryl-hydrazyl) and ABTS^+ (2,2′-azino-bis(3-ethylbenzthiazoline-6-sulfonic acid) radical scavenging ability and ferric ion reducing antioxidant power (FRAP). All drugs were dissolved in dimethyl sulfoxide (DMSO) at concentrations of 1–500 µM. These assays were performed according to the literature and details of these experiments are described elsewhere (see the ‘Results and Discussion’ section for the references).
values, as calculated by the following equation:
I% = [(Ac−As/Ac) × 100] (1)
3. Ferric ion reducing antioxidant power (FRAP)
reducing capacity of compounds 5a–d and 10.
[8] with slight modifications. […]

δ-ALA-D = molecular target: T1, δ-ALA-D (Mus musculus, UniProt P10518); assay: δ-ALA-D activity in tissue supernatants (in vitro toxicity); conditions: mean ± SD (n = 3)
T1 sequence (P10518 1-330): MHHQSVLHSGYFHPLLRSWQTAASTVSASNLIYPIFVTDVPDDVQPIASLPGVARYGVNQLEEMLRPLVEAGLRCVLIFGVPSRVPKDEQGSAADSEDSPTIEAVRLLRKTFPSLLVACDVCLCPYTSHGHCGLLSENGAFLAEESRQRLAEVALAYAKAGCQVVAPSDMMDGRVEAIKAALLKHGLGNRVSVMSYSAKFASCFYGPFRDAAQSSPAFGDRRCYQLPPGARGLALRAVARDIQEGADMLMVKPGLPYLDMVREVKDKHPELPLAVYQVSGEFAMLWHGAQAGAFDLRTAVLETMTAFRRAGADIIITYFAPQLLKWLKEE

[2] = test system: Staphylococcus aureus ATCC 25923; assay: MIC and MBC, macro dilution tube method; type: cell-based; conditions: S. mureus (so in the source); for MBC: 10^5 CFU.mL^−1; for MIC: 10^5 CFU.mL^−1, 24 h
Description: (§1) To evaluate the antimicrobial potential of the synthesized compounds, the following reference strains of bacteria, that are economically important in foods, were employed: Gram-positive Listeria monocytogenes ATCC 7644, Staphylococcus aureus ATCC 25923, and Bacillus cereus ATCC 11778; Gram-negative Salmonella Typhimurium ATCC 14028, Escherichia coli O157: H7 NCTC 12900 and the clinically important Pseudomonas aeruginosa ATCC 15442.
(§2) The antimicrobial activity assay using the disk diffusion test was realized using the methodology that is recommended by the Clinical Laboratory Standards Institute (CLSI). The determination of the minimum inhibitory concentration (MIC) and minimum bactericidal concentration (MBC) was performed using the macro dilution tube method, in accordance with Rota et al., with modifications. Details of these assays are provided in the Supplemental Material. […]
(§3) 2.2. Determination of the minimum inhibitory concentration (MIC) and minimum bactericidal concentration
(§4) The MIC was determined using the macro dilution tube method, in accordance with Rota et al.
(§5) [5], with modifications. The tested concentrations were 20, 18, 15, 12, 10, 7 and 5 μL.mL‐1 of each compound. In a tube with 1 mL of MH broth, was inoculated 105 UFC.mL‐1, the compound in a predetermined concentration and, to facilitate the solubility, 2 drops of TWEEN 80. The mixture was incubated at 37 °C for 24 h under stirring (150 rpm). As the positive control, MH broth and inoculum concentration in 105 UFC.mL‐1 and as the negative control MH, the inoculum concentration in 105 UFC∙mL‐1 and streptomycin (10 μg) were used. MIC was defined as the lowest concentration of […]
(§6) After 24 h, tubes with no visible growth were seeded in a […] TSA‐YE tube and incubated at 37 °C for 24 h. The MBC is the lowest concentration of compound where 99.9% of the initially inoculated cells were killed. […]
(§7) 2.4. Radical Scavenging Activity […]
(§8) The ABTS radical scavenging activity was determined according to the method described by Erel. Different concentrations of compounds 5a–d and 10 (10–500 μ M) were mixed with the ABTS+ solution, and the decrease in the absorbance at 734 nm was recorded.

[3] = test system: Bacillus cereus ATCC 11778; assay: MIC and MBC, macro dilution tube method; type: cell-based
Description: as §1, §2, §3, §4, §5, §6, §7, §8

[4] = test system: Escherichia coli O157: H7 NCTC 12900; assay: MIC and MBC, macro dilution tube method; type: cell-based; conditions: for MIC: E. coli O157:H7, 10^5 CFU.mL^−1, 24 h
Description: as §1, §2, §3, §4, §5, §6, §7, §8

[5] = test system: Listeria monocytogenes ATCC 7644; assay: MIC and MBC, macro dilution tube method; type: cell-based; conditions: L. monocytogenes; for MBC: 10^5 CFU.mL^−1; for MIC: 10^5 CFU.mL^−1, 24 h
Description: as §1, §2, §3, §4, §5, §6, §7, §8

[6] = B. mereus (so in the source), 10^5 CFU.mL^−1
[7] = B. mereus (so in the source), 10^5 CFU.mL^−1, 24 h
[8] = E. coli O157:H7, 10^5 CFU.mL^−1

SMILES | Ferric ion reducing antioxidant power (FRAP), absorbance at 593 nm ([1]; 10 μM) | Ferric ion reducing antioxidant power (FRAP), absorbance at 593 nm ([1]; 50 μM) | Ferric ion reducing antioxidant power (FRAP), absorbance at 593 nm ([1]; 100 μM) | δ-ALA-D activity (δ-ALA-D; Brain, 10 μM) [nmol PBG.mg.tn‐1.h‐1] | δ-ALA-D activity (δ-ALA-D; Brain, 50 μM) [nmol PBG.mg.tn‐1.h‐1] | δ-ALA-D activity (δ-ALA-D; Brain, 100 μM) [nmol PBG.mg.tn‐1.h‐1] | δ-ALA-D activity (δ-ALA-D; Brain, 500 μM) [nmol PBG.mg.tn‐1.h‐1] | δ-ALA-D activity (δ-ALA-D; Kidney, 10 μM) [nmol PBG.mg.tn‐1.h‐1] | δ-ALA-D activity (δ-ALA-D; Kidney, 50 μM) [nmol PBG.mg.tn‐1.h‐1] | δ-ALA-D activity (δ-ALA-D; Kidney, 100 μM) [nmol PBG.mg.tn‐1.h‐1] | δ-ALA-D activity (δ-ALA-D; Kidney, 500 μM) [nmol PBG.mg.tn‐1.h‐1] | δ-ALA-D activity (δ-ALA-D; Liver, 10 μM) [nmol PBG.mg.tn‐1.h‐1] | δ-ALA-D activity (δ-ALA-D; Liver, 50 μM) [nmol PBG.mg.tn‐1.h‐1] | δ-ALA-D activity (δ-ALA-D; Liver, 100 μM) [nmol PBG.mg.tn‐1.h‐1] | δ-ALA-D activity (δ-ALA-D; Liver, 500 μM) [nmol PBG.mg.tn‐1.h‐1] | MIC [2] [mM.mL^−1] | MBC [3, 6] [mM.mL^−1] | MIC [3, 7] [mM.mL^−1] | MBC [4, 8] [mM.mL^−1] | MIC [4] [mM.mL^−1] | other results
CC(C)=CCCC(C)C(/C=[N+](\C)[O-])Sc1ccccc1 (stereo not drawn) [5a, (E)-N,3,7-Trimethyl-2-(phenylthio)oct-6-en-1-imine oxide] | 0.207 ± 0.019 | 0.572 ± 0.023 | 1.039 ± 0.067 | 0.44 ± 0.09 | 0.42 ± 0.10 | 0.40 ± 0.11 | 0.36 ± 0.10 | 1.17 ± 0.05 | 1.17 ± 0.07 | 1.09 ± 0.08 | 0.90 ± 0.08 | 4.99 ± 0.84 | 4.87 ± 0.67 | 4.71 ± 0.89 | 4.46 ± 0.80 | >0.65 | 0.59 | 0.48 | >0.65 | >0.65 | Ferric ion reducing antioxidant power (FRAP), absorbance at 593 nm ([1]; 5 μM): 0.165 ± 0.007; MBC [2]: >0.65 mM.mL^−1; MBC ([3]; Bacillus cereus, ATCC11778): 590 µM (≈ 172 µg/mL); MIC ([3]; Bacillus cereus, ATCC11778, read-out: minimal inhibitory concentration (MIC)): 480 µM (≈ 140 µg/mL)
CC(C)=CCCC(C)(C/C=[N+](\C)[O-])Sc1ccccc1 (stereo not drawn) [5c, (E)-N,3,7-trimethyl-3-(phenylthio)oct-6-en-1-imine oxide] | 0.153 ± 0.047 | 0.543 ± 0.047 | 1.121 ± 0.160 | 0.30 ± 0.10 | 0.28 ± 0.09 | 0.26 ± 0.08 | 0.26 ± 0.07 | 1.10 ± 0.12 | 1.02 ± 0.12 | 0.99 ± 0.10 | 0.90 ± 0.07 | 4.63 ± 0.82 | 4.31 ± 0.81 | 4.12 ± 0.90 | 3.88 ± 0.87 | 0.61 | 0.69 | 0.69 | 0.52 | 0.52 | MBC [5]: >0.69 mM.mL^−1; MBC [2]: 0.69 mM.mL^−1; MBC ([4]; Escherichia coli, NCTC12900, read-out: minimal bactericidal concentration (MBC)): 520 µM (≈ 152 µg/mL)
CC(C)=CCCC(C)C/C=[N+](\C)[O-] (stereo not drawn) [5d, (E)-N,3,7-trimethyloct-6-en-1-imine oxide] | 0.412 ± 0.055 | 1.198 ± 0.024 |  | 0.29 ± 0.09 | 0.27 ± 0.10 | 0.26 ± 0.09 | 0.24 ± 0.08 | 1.02 ± 0.11 | 0.96 ± 0.12 | 0.89 ± 0.12 | 0.72 ± 0.07 | 4.50 ± 0.60 | 4.22 ± 0.78 | 3.54 ± 0.84 | 2.84 ± 0.57 | 1.26 | >1.26 | >1.26 | 1.26 | 1.13 | Ferric ion reducing antioxidant power (FRAP), absorbance at 593 nm ([1]; 1 μM): 0.166 ± 0.008; Ferric ion reducing antioxidant power (FRAP), absorbance at 593 nm ([1]; 5 μM): 0.280 ± 0.022; MIC [5]: 1.26 mM.mL^−1
CC(C)=CCC[C@@H](C)C(/C=N/O)[Se]c1ccccc1 (stereo partly drawn) [compound 10, (3R,E)-3,7-dimethyl-2-(phenylselanyl)oct-6-enal oxime] | 0.084 ± 0.010 | 0.180 ± 0.008 | 0.257 ± 0.007 | 0.30 ± 0.10 | 0.28 ± 0.09 | 0.26 ± 0.08 | 0.26 ± 0.07 | 0.96 ± 0.12 | 0.95 ± 0.10 | 0.84 ± 0.10 | 0.61 ± 0.12 | 4.90 ± 0.58 | 4.71 ± 0.53 | 4.57 ± 0.62 | 3.97 ± 0.82 | >0.70 | >0.70 | >0.70 | >0.70 | >0.70 | Ferric ion reducing antioxidant power (FRAP), absorbance at 593 nm ([1]; 500 μM): 1.291 ± 0.045; MBC [5]: >0.70 mM.mL^−1; MIC [5]: >0.70 mM.mL^−1; MBC [2]: >0.70 mM.mL^−1
